Values joined by “and” are separate entries in the source; they are usually repeats but may differ in a detail not shown here. Equal values may be shown once.
Columns and labels:
histone H4 acetylation = assay: Histone H4 hyperacetylation Western blot in embryos; type: in vivo, zebrafish; conditions: 24 hpf embryos treated 6 hours; 3 μM PTBA, 25 μM PBA, 200 nM TSA
Description: It was next determined whether the HDACi function of PTBA was quantifiable in vivo. 24 hpf embryos were treated with 3 μM PTBA, 25 μM PBA, or 200 nM TSA for 6 hours. Protein extracts were prepared and immunoblotted with an anti-hyperacetylated histone H4 antibody. […] Furthermore, increasing the compound concentration caused a corresponding increase in hyperacetylation (FIG. 21).
SDS-PAGE and Western blotting were performed as described previously with some modifications (Noel, E. S. et al. Organ-specific requirements for Hdac1 in liver and pancreas formation. Dev Biol 322, 237-250, (2008)). Proteins were separated on 18% SDS-PAGE gels. Membranes were incubated at 4° C. overnight with 1:1000 anti-hyperacetylated histone H4 antibody (06-946, Millipore) or 1:1000 anti-α-tubulin antibody (Sigma-Aldrich) in PBT containing 5% nonfat milk.

[1] = tested on: human HDACs (HeLa cell nuclear extract); assay: Fluorescence histone deacetylation assay with HeLa cell nuclear extract; type: biochemical; conditions: 5 mM compound, 10 μg HeLa extract
Description: To evaluate this in vitro, the deacetylation of a fluorescent peptide substrate was measured in the presence of human HDACs.
In vitro HDAC activity assays were performed using a fluorescence HDAC assay kit (Active Motif) according to the manufacturer's instructions. For maintaining compound solubility at 5 mM, the final DMSO concentration in all assay wells was increased to 5%. Fluorescence was detected using an M5 Plate Reader ([…])

zebrafish larvae = assay: Phenotypic scoring of edema and survival in zebrafish larvae at 72 hpf; type: in vivo; conditions: 25 μM PBA, 200 nM TSA
Description: (§1) PTBA was synthesized as described below. Hydroxyurea and aphidicolin were obtained from Sigma-Aldrich.
Wild type: no visible edema or developmental delay.

[2] = tested on: renal progenitor cells (lhx1a expression); assay: In situ hybridization for lhx1a expression in 10-somite embryos (renal progenitor cell expansion); type: in vivo; conditions: 10-somite embryos
Description: as §1
(§2) In situ hybridization and immunocytochemistry: In situ hybridization was performed as previously described with some modifications. 142 Hybridization temperature was 65° C. Embryos were blocked in 2% blocking reagent (Roche) with 5% sheep serum in MAB (100 mM maleic acid and 150 mM NaCl [pH 7.5]). Whole-mount immunocytochemistry with 1:25 mouse anti-α6F antibody (Developmental Studies Hybridoma Bank) and 1:100 Cy3 secondary antibody (Jackson ImmunoResearch) was performed as described previously. 108 Embryos were embedded in JB-4 for sectioning per the manufacturer's instructions (Polysciences), sectioned at 5 μm, and mounted with Cytoseal 60 (Richard-Allan Scientific).
The remaining PTBA analogs were synthesized.
In situ hybridization for lhx1a was performed as described above. […] Compounds were classified as effective, partially-effective or ineffective based on comparison to the effects of PTBA at a given concentration.
Testing of the compounds is on-going, but for those tested, Table 3 provides first pass EC50s based upon colormetric in situ hybridizations for the Lhx1a mRNA expression levels. After the procedure is run, in situ hybridization is done for the lhx1 mRNA expression and the number of embryos that show an expanded kidney field is manually counted to establish the percent of embryos showing expansion. Then the EC50 is determined by plotting the percent expansion in Excel, graphing the results and using the trendline function to determine the 50 percent point. […] For UPHD-00186, the 4 values for EC50 are shown in Table 3 for the corresponding expression in zebrafish embryos employed an artificial intelligence-based image analysis method termed cognition network technology (CNT) for n=4.

[3] = tested on: myod1 (somites), fli1a (vasculature), ntla (notochord); assay: In situ hybridization for mesodermal markers myod1, fli1a, ntla in 10-somite embryos; type: in vivo, zebrafish; conditions: 25 μM PBA
Description: as §1, §2

[4] = tested on: HDAC activity in DSI9 mouse erythroleukemia cells; conditions: 5 mM; cited from earlier work
[5] = tested on: mouse models of unilateral ureteral obstruction (UUO); assay: Unilateral ureteral obstruction (UUO); type: in vivo
Description: The model of unilateral ureteral obstruction generates progressive renal fibrosis. Surgically created UUO can be experimentally manipulated with respect to timing, severity, and duration, while reversal of the obstruction permits the study of recovery.
FIG. 47 represents the results of the testing of compounds UPHD-00022, UPHD-00025 (PTBA), UPHD-00029, UPHD-00036, and UPHD-00186, for their efficacy in mouse models of unilateral ureteral obstruction (UUO) as follows: in the UUO models, one ureter was ligated for 7 days and compounds were delivered via IP for days 0 to 6. At day 7 kidneys were harvested for Sirius red staining. […] Therefore, in the models tested, the only compound proven to be effective in all models and with significant delayed onset of treatment is UPHD-186.

[6] = tested on: BALB/c mice, severe IR-AKI; assay: Severe ischemia-reperfusion AKI (IR-AKI); type: in vivo, mouse
Description: Surgeries were performed on a water-bath heated platform at 38° C. on 10-12 week old male BALB/c mice. For moderate IR-AKI, mice underwent a right nephrectomy followed by left renal pedicle clamping (800 μm pressure clamp, FST 18052-03). The clamp was released after 26 minutes, and tissue reperfusion was confirmed before completing the surgery. Mice were treated daily with indicated doses of compounds or equivalent volume of 20% 2-hydroxypropyl-β-cyclodextrin in water as vehicle control starting 24 h after injury. Since initial injury with this model is variable, mice were randomly allocated vehicle or m4PTB treatment if their serum creatinine levels were 0.8 to 1.2 mg/dl 24 h post IR injury. Other mice were excluded from further analysis and euthanized. To induce severe IR-AKI, mice underwent left renal pedicle clamping for 30 minutes and delayed contralateral nephrectomy was performed after 8 days.
For mouse studies, kidney sections were stained using Periodic Acid-Schiff (PAS) to assess renal tubular injury. Tubular injury (casts, dilated tubules, epithelial cell blebbing, and vacuolization, loss of brush borders or nuclei) was scored as described. Sirius red staining was performed using an established protocol used to evaluate renal fibrosis/collagen accumulation in kidney sections. To quantify Sirius red staining we used an Olympus BX-41 microscope equipped with an Olympus DP-72 digital camera system and polarizing light filter. Results are expressed as the mean percent fibrosis for all of the images per slide region (Sirius red positive/total surface area).
We used of 2-hydroxypropyl-β-cyclodextrin (CD, Sigma), a low toxicity drug formulation vehicle that has been well characterized and used extensively as a hydrophobic drug delivery vehicle. We could achieve concentrations of up to ˜12 mg/ml of PTBA analogues in 20% CD in water (100 mg/kg in volumes of ˜150-250 μl), and daily IP injections with 200 μl 20% CD in water had no effect on renal functional recovery following IR-AKI. Therefore all studies were performed using compounds dissolved in 20% CD. To assess dosing and biological activity of PTBA analogues in mice, CD1 mice were injected with varying doses of compounds IP and kidneys isolated at different time point for histone extraction and analysis of histone H4 acetylation, a marker of HDAC inhibitor activity, as outlined below. Based on results of these studies, mice were treated daily with 1, 10, 50 or 100 mg/kg of compound or equivalent volume of 20% CD vehicle control starting 24 h after injury.
˜30 μl blood was obtained by tail vein bleed at different time points, and serum samples frozen after confirming that they had not undergone hemolysis (which interferes with enzymatic analysis for serum creatinine). Serum creatinine was evaluated in duplicate samples using a commercially available enzymatic cascade assay (Pointe Scientific, requires only ˜7 μl of serum). […] Blood Urea Nitrogen (BUN) was determined in duplicate samples using a colorimetric enzymatic assay kit (Infinity Urea, Thermo Scientific), and spot urinary albumin/creatinine ratios determined using a mouse albumin ELISA and urinary creatinine assay kit (Albuwell and Creatinine Companion, Exocell).
Compounds 22, 25, 29, 36, and 186 were injected for 7 days at […] starting 24 hrs after severe IR treatment. […] Fibrotic (scar) tissue was measured using Sirus Red after 28 days for various markers of fibrosis.

[7] = tested on: kidney field (cad17:EGFP); assay: Image-based high-content screen, Tg(cad17:EGFP) embryos, CNT analysis; type: in vivo, zebrafish; conditions: 4 individual values (n=4)
Description: Initial studies, above, used a phenotypic marker of the ability to expand the renal progenitor cell field in larval zebrafish, and identified the first member of a novel class of HDAC inhibitors, PTBA as well as a few structural and functional analogs. These findings form the basis for further study. However, this technology is limited as it is dependent on subjective interpretation of a subtle phenotypic change in the fish. Therefore, in order to develop a more objective and higher content screen, we developed an image-based high-content screen using transgenic zebrafish (Vogt A, et al. Automated image-based phenotypic analysis in zebrafish embryos. Dev Dyn. 2009; 238(3):656-63). […] Tg(Cad17:EGFP) zebrafish is a transgenic line that was prepared by isolation of an approximately 5 kb (5066 bp) promoter element and approximately 3 kb (3221 bp) first intron element from the cadherin 17 locus, cloning it into a plasmid along with the enhanced GFP open reading frame and injecting if into zebrafish embryos to established transgenic lines using the meganuclease transgenesis method (Soroldoni et al., Simple and efficient transgenesis with meganuclease constructs in zebrafish, Methods Mol Bio 2009; 546: 117-30.). […]
For all second-generation compounds, the cad17:EGFP transgene is used as the primary readout to assay for expansion of kidney field (FIG. 35). […]

[8] = 7 days at 50 mg/ml starting 24 hrs after severe IR

## O=C(O)CCCc1ccccc1 [PBA, 4-phenylbutanoic acid]
Histone H4 acetylation
  histone H4 hyperacetylation: hyperacetylation was observed
[1]
  HDAC activity, % of the control value: 30%
Zebrafish larvae; n=90
  death (lethality) by 72 hpf: 8%
Zebrafish larvae; treated from 2 hpf, 3 μM PTBA
  larvae with edemic phenotype / pericardial edema at 72 hpf: 23%
[2]
  concentration producing lhx1a expansion consistent with 3 μM PTBA: 25 µM
[3]; 3 μM PTBA (slightly decreased), 200 nM TSA
  embryos with decreased myod1 expression: 57%
[3]; 3 μM PTBA
  embryos with increased ntla expression: 87%
[3]; 200 nM TSA
  embryos with decreased fli1a expression: 78%
[4]
  HDAC activity, % of the control value: 19%

## O=C(CCCSc1ccccc1)Nc1ccccc1O [UPHD-00186, N-(2-hydroxyphenyl)-4-(phenylsulfanyl) butanamide]
[5]; IP days 0 to 6, kidneys harvested at day 7
  fibrosis (Sirius red) and expression of fibrosis markers in UUO kidney: reduce both fibrosis and expression of fibrosis markers
[5]; mouse, in vivo
  prevention of post injury fibrosis in UUO compared with Vorinostat (SAHA): more effective than the FDA approved HDACi drug Vorinostat (SAHA)
[6]; [8]
  fibrosis after 28 days (Sirus Red, markers of fibrosis): most reduction in fibrosis
  serum creatinine at day 9: better activity
[6]; FIG. 46
  effect of timing of treatment in severe IR-AKI: has still a significant effect on IR-AKI after more than 7 days
[6]; treatment 3 days after IR-AKI, FIG. 48
  post injury fibrosis with delayed treatment: still markedly reduces post injury fibrosis
[6]; various dosages, FIG. 45
  reduction in post injury fibrosis at various dosages: efficient at elevated doses
[7]
  EC50: 649 nM and 810 nM and 818 nM
[7]; Danio rerio
  EC50: 587 nM
